From publication PMC6940900, “Antiviral Activity of Benzoic Acid Derivative NC-5 Against Influenza A Virus and Its Neuraminidase Inhibition” (International Journal of Molecular Sciences, 2019)

Tests used:
[1] = molecular target: NA of A/Vietnam/1203/2004 (H5N1) (Influenza A virus (A/Viet Nam/1203/2004(H5N1)), UniProt Q6DPL2); experiment: cell-based
[2] = molecular target: NA of A/Anhui/1/2013 (H7N9) (Influenza A virus (A/Anhui/1-BALF_RG1/2013(H7N9)), UniProt A0A024E3Q2); assay type: cell-based

Q: What does the source list for `O=C(O)c1ccc(N2C(=O)CCC2(CO)CO)c(Nc2nnc(C3CCCCC3)[nH]2)c1` [compound 5]?
A: IC50 [1]: > 480 µM; IC50 [2]: > 480 µM
